# Assays:
# Assay in all cases: in vitro antibacterial evaluation, MIC by broth dilution
# Type in all cases: cell-based
# [1] = tested on: Enterococcus sp.; details: broth dilution, 18 hours at 35° C.
# Method: (§1) Methods for in vitro Antibacterial Evaluation (Table 1)
# (§2) The minimum inhibitory concentration (MIC), the lowest concentration of the antibiotic which inhibits growth of the test organism, is determined by the broth dilution method using Muller-Hinton II […] (Baltimore Biological Laboratories) following the recommendations of the National Committee for Clinical Laboratory Standards [Methods for dilution antimicrobial susceptibility tests for bacteria that grow aerobically, approved standard M7-A2, National Committee for Clinical Laboratory Standards, Villanova, Pa.].
# (§3) An inoculum level of 5×10^5 CFU/mL, and a range of antibiotic concentrations (64-0.06 μg/mL) is used. […] The test organisms include a spectrum of Gram-positive bacteria comprised of Staphylococcus sp., Streptococcus sp. and Enterococcus sp. These organisms include recent clinical isolates that are resistant to methicillin, penicillin and/or vancomycin.
# [2] = tested on: Staphylococcus sp.; details: broth dilution, 18 hours at 35° C.; for MIC Staphylococcus aureus (GC 1131): strain GC 1131; for MIC Staphylococcus aureus (ATCC 29213): strain ATCC 29213; for MIC Staphylococcus aureus (GC 3051): strain GC 3051; for MIC Staphylococcus aureus (GC 3053): strain GC 3053; for MIC Staphylococcus aureus (GC 4541): strain GC 4541; for MIC Staphylococcus aureus (GC 4542): strain GC 4542; for MIC Staphylococcus aureus (GC 4544): strain GC 4544; for MIC Staphylococcus aureus (GC 4545): strain GC 4545
# Method: as §1, §2, §3
# [3] = tested on: Streptococcus sp.; details: broth dilution, 18 hours at 35° C.
# Method: as §1, §2, §3
# [4] = tested on: Escherichia coli; details: 18 hours at 35° C.
smiles,measurement,setting,value
CC(c1ccccc1)C1NC(=O)CNC(=O)C(CO)NC(=O)C(C(O)C2CNC(=N)N2C2OC(CO)C(O)C(O)C2O)NC(=O)C(C(O)C2CNC(=N)N2)NC(=O)C(Cc2ccc(OC3OC(CO)C(OC4OC5COC(c6ccc(C(=O)c7cc(I)c(I)c(I)c7)cc6)OC5C(O)C4O)C(O)C3O)cc2)NC1=O (centres unmarked) [Example 187],MIC Enterococcus avium (GC 4558),[1],16 µg/mL
same,MIC Enterococcus faecalis (ATCC 29212),[1],64 µg/mL
same,MIC Enterococcus faecalis (GC 2242),[1],64 µg/mL
same,MIC Enterococcus faecalis (GC 2691),[1],16 µg/mL
same,MIC Enterococcus faecalis (GC 3059),[1],128 µg/mL
same,MIC Enterococcus faecalis (GC 4552),[1],64 µg/mL
same,MIC Enterococcus faecalis (GC 4553),[1],32 µg/mL
same,MIC Enterococcus faecalis (GC 4554),[1],64 µg/mL
same,MIC Enterococcus faecalis (GC 6189),[1],16 µg/mL
same,MIC Enterococcus faecium (GC 2243),[1],16 µg/mL
same,MIC Enterococcus faecium (GC 4556),[1],128 µg/mL
same,MIC Enterococcus faecium (GC 4557),[1],16 µg/mL
same,MIC Enterococcus faecalis (ATCC 29212),"[1]; inoculum 5×10^5 CFU/mL, strain ATCC 29212",64 µg/mL
same,MIC Enterococcus faecalis (GC 2242),"[1]; inoculum 5×10^5 CFU/mL, strain GC 2242",64 µg/mL
same,MIC Enterococcus faecium (GC 2243),"[1]; inoculum 5×10^5 CFU/mL, strain GC 2243",16 µg/mL
same,MIC Enterococcus faecalis (GC 2691),"[1]; inoculum 5×10^5 CFU/mL, strain GC 2691",16 µg/mL
same,MIC Enterococcus faecalis (GC 3059),"[1]; inoculum 5×10^5 CFU/mL, strain GC 3059",128 µg/mL
same,MIC Enterococcus faecalis (GC 4552),"[1]; inoculum 5×10^5 CFU/mL, strain GC 4552",64 µg/mL
same,MIC Enterococcus faecalis (GC 4553),"[1]; inoculum 5×10^5 CFU/mL, strain GC 4553",32 µg/mL
same,MIC Enterococcus faecalis (GC 4554),"[1]; inoculum 5×10^5 CFU/mL, strain GC 4554",64 µg/mL
same,MIC Enterococcus faecium (GC 4556),"[1]; inoculum 5×10^5 CFU/mL, strain GC 4556",128 µg/mL
same,MIC Enterococcus faecium (GC 4557),"[1]; inoculum 5×10^5 CFU/mL, strain GC 4557",16 µg/mL
same,MIC Enterococcus avium (GC 4558),"[1]; inoculum 5×10^5 CFU/mL, strain GC 4558",16 µg/mL
same,MIC Enterococcus faecalis (GC 6189),"[1]; inoculum 5×10^5 CFU/mL, strain GC 6189",16 µg/mL
same,MIC Staphylococcus aureus (GC 1131),[2]; inoculum 5×10^5 CFU/mL,64 µg/mL
same,MIC Staphylococcus aureus (ATCC 29213),[2],64 µg/mL
same,MIC Staphylococcus aureus (GC 1131),[2],64 µg/mL
same,MIC Staphylococcus aureus (GC 3051),[2],64 µg/mL
same,MIC Staphylococcus aureus (GC 3053),[2],32 µg/mL
same,MIC Staphylococcus aureus (GC 4541),[2],64 µg/mL
same,MIC Staphylococcus aureus (GC 4542),[2],64 µg/mL
same,MIC Staphylococcus aureus-SMITH (GC 4543),[2]; strain GC 4543,64 µg/mL
same,MIC Staphylococcus aureus (GC 4544),[2],64 µg/mL
same,MIC Staphylococcus aureus (GC 4545),[2],64 µg/mL
same,MIC Staphylococcus haemolyticus (GC 4546),[2]; strain GC 4546,128 µg/mL
same,MIC Coagulase Negative Staphylococcus (GC 4547),[2]; strain GC 4547,128 µg/mL
same,MIC Coagulase Negative Staphylococcus (GC 4548),[2]; strain GC 4548,16 µg/mL
same,MIC Coagulase Negative Staphylococcus (GC 4549),[2]; strain GC 4549,64 µg/mL
same,MIC Coagulase Negative Staphylococcus (GC 4551),[2]; strain GC 4551,32 µg/mL
same,MIC Coagulase Negative Staphylococcus (GC 6257),[2]; strain GC 6257,32 µg/mL
same,MIC Streptococcus agalactiae (GC 4564),[3],<0.12 µg/mL
same,MIC Streptococcus pneumoniae (ATCC 6301),[3],<0.12 µg/mL
same,MIC Streptococcus pneumoniae (GC 1894),[3],<0.12 µg/mL
same,MIC Streptococcus pneumoniae (GC 4565),[3],<0.12 µg/mL
same,MIC Streptococcus pyogenes (GC 4563),[3],0.5 µg/mL
same,MIC Streptococcus pneumoniae (ATCC 6301),"[3]; inoculum 5×10^5 CFU/mL, strain ATCC 6301",<0.12 µg/mL
same,MIC Streptococcus pneumoniae (GC 1894),"[3]; inoculum 5×10^5 CFU/mL, strain GC 1894",<0.12 µg/mL
same,MIC Streptococcus pyogenes (GC 4563),"[3]; inoculum 5×10^5 CFU/mL, strain GC 4563",0.5 µg/mL
same,MIC Streptococcus agalactiae (GC 4564),"[3]; inoculum 5×10^5 CFU/mL, strain GC 4564",<0.12 µg/mL
same,MIC Streptococcus pneumoniae (GC 4565),"[3]; inoculum 5×10^5 CFU/mL, strain GC 4565",<0.12 µg/mL
same,MIC Escherichia coli (ATCC 25922),[4],>128 µg/mL
same,MIC Escherichia coli (GC 4559),[4],>128 µg/mL
same,MIC Escherichia coli (GC 4560),[4],128 µg/mL
"CC(c1ccccc1)C1NC(=O)CNC(=O)C(CO)NC(=O)C(C(O)C2CN(c3ncccn3)C(=N)N2C2OC(CO)C(O)C(O)C2O)NC(=O)C(C(O)C2CNC(=Nc3ncccn3)N2)NC(=O)C(Cc2ccc(OC3OC(CO)C(OC4OC(CO)C(O)C(O)C4O)C(O)C3O)cc2)NC1=O (stereo not drawn) [Example 92, Cyclo[glycyl-β-methylphenylalanyl-O-(4-O-hexolpyranosylhexopyranosyl)tyrosyl-3-[2-(pyrimidin-2-ylimino)imidazolidin-4-yl]seryl-3-[3-hexopyranosyl-2-imino-1-(pyrimidin-2-yl)imidazolidin-4-yl]serylseryl]]",MIC Enterococcus avium (GC 4558),[1]; Enterococcus avium (GC 4558),128 µg/mL
same,MIC Enterococcus faecalis (ATCC 29212),[1]; Enterococcus faecalis (ATCC 29212),>128 µg/mL
same,MIC Enterococcus faecalis (GC 4552),[1]; Enterococcus faecalis (GC 4552),>128 µg/mL
same,MIC Enterococcus faecalis (GC 4553),[1]; Enterococcus faecalis (GC 4553),128 µg/mL
same,MIC Enterococcus faecalis (GC 4554),[1]; Enterococcus faecalis (GC 4554),>128 µg/mL
same,MIC Enterococcus faecalis (GC 6189),[1]; Enterococcus faecalis (GC 6189),>128 µg/mL
same,MIC Enterococcus faecium (GC 2243),[1]; Enterococcus faecium (GC 2243),>128 µg/mL
same,MIC Enterococcus faecium (GC 4556),[1]; Enterococcus faecium (GC 4556),>128 µg/mL
same,MIC Enterococcus faecium (GC 4557),[1]; Enterococcus faecium (GC 4557),128 µg/mL
same,MIC Enterococcus avium (GC 4558),[1],128 µg/mL
same,MIC Enterococcus faecalis (ATCC 29212),[1],>128 µg/mL
same,MIC Enterococcus faecalis (GC 2242),[1],>128 µg/mL
same,MIC Enterococcus faecalis (GC 2691),[1],>128 µg/mL
same,MIC Enterococcus faecalis (GC 3059),[1],>128 µg/mL
same,MIC Enterococcus faecalis (GC 4552),[1],>128 µg/mL
same,MIC Enterococcus faecalis (GC 4553),[1],128 µg/mL
same,MIC Enterococcus faecalis (GC 4554),[1],>128 µg/mL
same,MIC Enterococcus faecalis (GC 6189),[1],>128 µg/mL
same,MIC Enterococcus faecium (GC 2243),[1],>128 µg/mL
same,MIC Enterococcus faecium (GC 4556),[1],>128 µg/mL
same,MIC Enterococcus faecium (GC 4557),[1],128 µg/mL
same,MIC Enterococcus faecalis (GC 2242),[1]; strain GC 2242,>128 µg/mL
same,MIC Enterococcus faecalis (GC 2691),[1]; strain GC 2691,>128 µg/mL
same,MIC Enterococcus faecalis (GC 3059),[1]; strain GC 3059,>128 µg/mL
same,MIC Coagulase Negative Staphylococcus (GC 4547),[2],>128 µg/mL
same,MIC Coagulase Negative Staphylococcus (GC 4548),[2],>128 µg/mL
same,MIC Coagulase Negative Staphylococcus (GC 4549),[2],>128 µg/mL
same,MIC Coagulase Negative Staphylococcus (GC 4551),[2],>128 µg/mL
same,MIC Staphylococcus aureus-SMITH (GC 4543),[2],>128 µg/mL
same,MIC Staphylococcus haemolyticus (GC 4546),[2],>128 µg/mL
same,MIC Staphylococcus aureus (ATCC 29213),[2],>128 µg/mL
same,MIC Staphylococcus aureus (GC 1131),[2],>128 µg/mL
same,MIC Staphylococcus aureus (GC 3051),[2],>128 µg/mL
same,MIC Staphylococcus aureus (GC 3053),[2],>128 µg/mL
same,MIC Staphylococcus aureus (GC 4541),[2],>128 µg/mL
same,MIC Staphylococcus aureus (GC 4542),[2],>128 µg/mL
same,MIC Staphylococcus aureus-SMITH (GC 4543),[2]; strain GC 4543,>128 µg/mL
same,MIC Staphylococcus aureus (GC 4544),[2],>128 µg/mL
same,MIC Staphylococcus aureus (GC 4545),[2],>128 µg/mL
same,MIC Staphylococcus haemolyticus (GC 4546),[2]; strain GC 4546,>128 µg/mL
same,MIC Coagulase Negative Staphylococcus (GC 4547),[2]; strain GC 4547,>128 µg/mL
same,MIC Coagulase Negative Staphylococcus (GC 4548),[2]; strain GC 4548,>128 µg/mL
same,MIC Coagulase Negative Staphylococcus (GC 4549),[2]; strain GC 4549,>128 µg/mL
same,MIC Coagulase Negative Staphylococcus (GC 4551),[2]; strain GC 4551,>128 µg/mL
same,MIC Streptococcus agalactiae (GC 4564),[3],>128 µg/mL
same,MIC Streptococcus pneumoniae (ATCC 6301),[3],128 µg/mL
same,MIC Streptococcus pneumoniae (GC 1894),[3],128 µg/mL
same,MIC Streptococcus pneumoniae (GC 4565),[3],128 µg/mL
same,MIC Streptococcus pyogenes (GC 4563),[3],>128 µg/mL
same,MIC Streptococcus pneumoniae (ATCC 6301),[3]; strain ATCC 6301,128 µg/mL
same,MIC Streptococcus pneumoniae (GC 1894),[3]; strain GC 1894,128 µg/mL
same,MIC Streptococcus pyogenes (GC 4563),[3]; strain GC 4563,>128 µg/mL
same,MIC Streptococcus agalactiae (GC 4564),[3]; strain GC 4564,>128 µg/mL
same,MIC Streptococcus pneumoniae (GC 4565),[3]; strain GC 4565,128 µg/mL
same,MIC Escherichia coli (ATCC 25922),[4],>128 µg/mL
same,MIC Escherichia coli (GC 4559),[4],>128 µg/mL
same,MIC Escherichia coli (GC 4560),[4],>128 µg/mL

# Source: patent publication US6914045B2, “Glycopeptide antibiotics” (Wyeth Holdings Corporation, priority 2001, dated 2005)
